Values quoted from earlier work in patent US6239177A, “Tranilast-containing preparation for external application and method of producing the same” (Lead Chemical Co., Ltd., priority 1996, dated 2001).
Read-outs that look alike come from different tables or passages of the source.

Key:
[1] = test system: keloid and hypertrophic scar; conditions: Ichikawa 1992; Suzawa 1992
[2] = test system: carrageenan-induced granulation tissue; conditions: for drug concentration in the skin tissue: one hour after final administration, 60 min

COc1ccc(C=CC(=O)Nc2ccccc2C(=O)O)cc1OC [tranilast, N-(3,4-dimethoxycinnamoyl)-anthranilic acid]
solubility in dimethyl formamide, pyridine, dioxane, and acetone (dimethyl formamide, pyridine, dioxane, acetone): soluble
solubility in a kind of fatty acid and its ester, animal and vegetable oils and fats, terpene compounds, and alcohols (fatty acids/esters, oils and fats, terpenes, alcohols): can be solved to some extent
solubility in methanol, ethanol, ethyl acetate (methanol, ethanol, ethyl acetate): hardly soluble
solubility in water: extremely sparingly soluble
solubility in water (listed as Tranilast): sparingly soluble
pharmaceutical effect on keloid and hypertrophic scar [1]: excellent pharmaceutical effect
drug concentration in the skin tissue ([2]; oral 50 mg/kg for consecutive 14 days): 4.2 ± 0.4 µg/g
drug concentration in the skin tissue ([2]; oral 100 mg/kg for consecutive 14 days): 10.3 ± 0.9 µg/g
drug concentration in the skin tissue ([2]; oral 200 mg/kg for consecutive 14 days): 23.17 ± 1.7 µg/g
inhibitory effect (carrageenan-induced granulation tissue) ([2]; oral 50, 100, and 200 mg/kg for consecutive 14 days): dose-dependent inhibitory effect was observed
